Measurements as given in ChEMBL document CHEMBL4715815, “Design, synthesis and biological evaluation of 7H-pyrrolo[2,3-d]pyrimidin-4-amine derivatives as selective Btk inhibitors with improved pharmacokinetic properties for the treatment of rheumatoid arthritis” (Eur J Med Chem, 2018).
Activity calls are given as the source filed them. The rule behind the calls is not given here.

Key:
[1] = target: T1, Tyrosine-protein kinase BTK (Homo sapiens, UniProt Q06187); assay: Inhibition of BTK in human Raji cells assessed as reduction in PLCgamma2 Y1217 phosphorylation at 0.03 to 10 uM incubated for 1 hr by Western blot analysis; type: cell-based; settings: dose 0.03-10 µM
L02 = assay: Cytotoxicity against human L02 cells assessed as reduction in cell viability incubated for 72 hrs by MTT assay; type: ADME, cell-based; settings: L02, 72 h
[2] = target: T1, Tyrosine-protein kinase BTK; assay: Inhibition of BTK in human Daudi cells assessed as reduction in BTK Y223 phosphorylation incubated for 1 hr by Western blot analysis; type: cell-based; settings: dose 0.03-10 µM
[3] = target: T1, Tyrosine-protein kinase BTK; assay: Inhibition of BTK in human Daudi cells assessed as reduction in BTK Y551 phosphorylation at 0.03 to 10 uM incubated for 1 hr by Western blot analysis; type: cell-based; settings: dose 0.03-10 µM
[4] = target: T1, Tyrosine-protein kinase BTK; assay: Inhibition of BTK in human Raji cells assessed as reduction in BTK Y551 phosphorylation at 0.03 to 10 uM incubated for 1 hr by Western blot analysis; type: cell-based; settings: dose 0.03-10 µM
[5] = target: T1, Tyrosine-protein kinase BTK; assay: Inhibition of BTK in human Daudi cells assessed as reduction in PLCgamma2 Y1217 phosphorylation at 0.03 to 10 uM incubated for 1 hr by Western blot analysis; type: cell-based; settings: dose 0.03-10 µM
[6] = Tmax in Sprague-Dawley rat at 3 mg/kg, iv measured up to 24 hrs by LC-MS/MS analysis; type: ADME, organism-based; settings: in vivo
[7] = Half life in Sprague-Dawley rat at 3 mg/kg, iv measured up to 24 hrs by LC-MS/MS analysis; type: ADME, organism-based; settings: in vivo
[8] = Volume of distribution in Sprague-Dawley rat at 3 mg/kg, iv measured up to 24 hrs by LC-MS/MS analysis; type: ADME, organism-based; settings: in vivo
[9] = Metabolic stability in human liver microsomes assessed as half life at 100 uM/L measured upto 90 mins by LC-MS/MS analysis; type: ADME, Microsome
[10] = Metabolic stability in rat liver microsomes assessed as half life at 100 uM/L measured upto 90 mins by LC-MS/MS analysis; type: ADME, Microsome
[11] = Metabolic stability in mouse liver microsomes assessed as half life at 100 uM/L measured upto 90 mins by LC-MS/MS analysis; type: ADME, Microsome
[12] = Metabolic stability in rat liver microsomes assessed as intrinsic clearance at 100 uM/L measured upto 90 mins by LC-MS/MS analysis; type: ADME, Microsome; settings: 1.5 h
[13] = Metabolic stability in dog liver microsomes assessed as intrinsic clearance at 100 uM/L measured upto 90 mins by LC-MS/MS analysis; type: ADME, Canis lupus familiaris, Microsome; settings: 1.5 h
Mus musculus = assay: Antiarthritic activity in DBA/1J mouse model of collagen-induced arthritis at 20 mg/kg, po administered for 30 days and measured on day 30; type: functional, organism-based; settings: time 30.0 day
[14] = target: Tyrosine-protein kinase ITK/TSK (Homo sapiens, UniProt Q08881); assay: Inhibition of ITK (unknown origin)
[15] = target: Tyrosine-protein kinase TXK (Homo sapiens, UniProt P42681); assay: Inhibition of TXK (unknown origin)
[16] = target: Tyrosine-protein kinase Blk (Homo sapiens, UniProt P51451); assay: Inhibition of BLK (unknown origin)
[17] = target: Dual specificity mitogen-activated protein kinase kinase 7 (Homo sapiens, UniProt O14733); assay: Inhibition of MKK7beta (unknown origin)
[18] = target: Calcium/calmodulin-dependent protein kinase type 1 (Homo sapiens, UniProt Q14012); assay: Inhibition of CAMK1 (unknown origin)
[19] = target: Calcium/calmodulin-dependent protein kinase type IV (Homo sapiens, UniProt Q16566); assay: Inhibition of CAMK4 (unknown origin)
[20] = target: Calcium/calmodulin-dependent protein kinase kinase 1 (Homo sapiens, UniProt Q8N5S9); assay: Inhibition of CAMKK1 (unknown origin)
[21] = target: Calcium/calmodulin-dependent protein kinase kinase 2 (Homo sapiens, UniProt Q96RR4); assay: Inhibition of CAMKK2 (unknown origin)
[22] = Inhibition of GSK3alpha/GSK3beta (unknown origin); set-up: species or system Homo sapiens
[23] = target: Dual specificity mitogen-activated protein kinase kinase 2 (Homo sapiens, UniProt P36507); assay: Inhibition of MEK2 (unknown origin)
[24] = target: Proto-oncogene tyrosine-protein kinase receptor Ret (Homo sapiens, UniProt P07949); assay: Inhibition of RET (unknown origin)
[25] = target: Dual specificity mitogen-activated protein kinase kinase 4 (Homo sapiens, UniProt P45985); assay: Inhibition of MKK4 (unknown origin)
[26] = target: Tyrosine-protein kinase Fgr (Homo sapiens, UniProt P09769); assay: Inhibition of FGR (unknown origin)
[27] = target: Tyrosine-protein kinase FRK (Homo sapiens, UniProt P42685); assay: Inhibition of FRK (unknown origin)
[28] = target: Receptor-type tyrosine-protein kinase FLT3 (Homo sapiens, UniProt P36888); assay: Inhibition of FLT3 (unknown origin)
[29] = target: Tyrosine-protein kinase Yes (Homo sapiens, UniProt P07947); assay: Inhibition of recombinant human YES using biotinyl-beta Abeta-Abeta AYQAEENTYDEYEN as substrate incubate for 30 mins by LANCE assay
[30] = target: Tyrosine-protein kinase Lck (Homo sapiens, UniProt P06239); assay: Inhibition of recombinant human LCK using Ulight-Poly GAT[EAY(1:1:1)]n as substrate incubate for 10 mins by LANCE assay
[31] = target: Tyrosine-protein kinase Lyn (Homo sapiens, UniProt P07948); assay: Inhibition of recombinant human LYN using biotinyl-beta Abeta-Abeta AKVEKIGEGTYGVVYK as substrate incubate for 120 mins by LANCE assay
[32] = target: Mitogen-activated protein kinase kinase kinase 7 (Homo sapiens, UniProt O43318); assay: Inhibition of recombinant human TAK1 using Ulight-FLGFTYVAP as substrate incubate for 90 mins by LANCE assay
[33] = target: BDNF/NT-3 growth factors receptor (Homo sapiens, UniProt Q16620); assay: Inhibition of recombinant human TRKb using Ulight-Poly GAT[EAY(1:1:1)]n as substrate incubate for 10 mins by LANCE assay
[34] = target: Epidermal growth factor receptor (Homo sapiens, UniProt P00533)
[35] = Toxicity in BALB/c mouse assessed as normal behavior at 2 g/kg, po measured after 7 days of administration; settings: in vivo, 168 h
[36] = Toxicity in BALB/c mouse assessed as effect on lung at 2 g/kg, po measured after 7 days of administration by histopathological analysis; settings: in vivo, 168 h
[37] = Toxicity in BALB/c mouse assessed as effect on heart at 2 g/kg, po measured after 7 days of administration by histopathological analysis; settings: in vivo, 168 h
[38] = Toxicity in BALB/c mouse assessed as effect on liver at 2 g/kg, po measured after 7 days of administration by histopathological analysis; settings: in vivo, 168 h
[39] = Toxicity in BALB/c mouse assessed as effect on kidney at 2 g/kg, po measured after 7 days of administration by histopathological analysis; settings: in vivo, 168 h

T1 sequence (Q06187 whole entry): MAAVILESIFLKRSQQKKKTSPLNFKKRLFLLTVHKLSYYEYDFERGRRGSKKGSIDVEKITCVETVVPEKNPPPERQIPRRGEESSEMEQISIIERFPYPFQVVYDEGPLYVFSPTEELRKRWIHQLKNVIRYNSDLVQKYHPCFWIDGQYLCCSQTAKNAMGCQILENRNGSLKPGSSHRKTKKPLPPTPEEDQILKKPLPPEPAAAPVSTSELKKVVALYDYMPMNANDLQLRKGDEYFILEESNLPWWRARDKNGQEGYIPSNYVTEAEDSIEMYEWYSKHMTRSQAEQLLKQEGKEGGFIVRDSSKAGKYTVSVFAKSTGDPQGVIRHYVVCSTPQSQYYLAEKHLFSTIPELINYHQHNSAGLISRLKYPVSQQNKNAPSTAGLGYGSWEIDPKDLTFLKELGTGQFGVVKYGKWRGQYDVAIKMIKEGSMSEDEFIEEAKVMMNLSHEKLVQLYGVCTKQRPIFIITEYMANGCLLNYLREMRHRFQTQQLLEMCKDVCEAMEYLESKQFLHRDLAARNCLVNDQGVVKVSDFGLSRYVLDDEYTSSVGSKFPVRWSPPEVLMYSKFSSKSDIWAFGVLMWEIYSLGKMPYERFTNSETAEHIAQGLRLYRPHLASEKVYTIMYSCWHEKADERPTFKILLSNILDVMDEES
Chain of Tyrosine-protein kinase Yes (P07947 whole entry): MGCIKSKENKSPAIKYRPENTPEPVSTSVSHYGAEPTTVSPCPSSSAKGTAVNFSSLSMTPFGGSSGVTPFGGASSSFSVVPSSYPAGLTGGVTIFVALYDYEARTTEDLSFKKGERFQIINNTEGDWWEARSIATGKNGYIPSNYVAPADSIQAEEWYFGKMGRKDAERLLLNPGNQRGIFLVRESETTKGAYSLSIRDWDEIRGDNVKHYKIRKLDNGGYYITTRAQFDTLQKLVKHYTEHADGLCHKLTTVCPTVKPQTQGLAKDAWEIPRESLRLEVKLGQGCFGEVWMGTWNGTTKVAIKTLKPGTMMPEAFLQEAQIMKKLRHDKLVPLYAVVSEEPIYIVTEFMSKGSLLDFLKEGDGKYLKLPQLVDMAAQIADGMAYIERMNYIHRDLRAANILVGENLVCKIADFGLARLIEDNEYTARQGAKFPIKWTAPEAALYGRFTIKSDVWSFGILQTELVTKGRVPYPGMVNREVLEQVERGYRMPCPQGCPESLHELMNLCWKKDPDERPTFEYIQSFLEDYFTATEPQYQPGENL
Chain of Receptor-type tyrosine-protein kinase FLT3 (P36888 whole entry): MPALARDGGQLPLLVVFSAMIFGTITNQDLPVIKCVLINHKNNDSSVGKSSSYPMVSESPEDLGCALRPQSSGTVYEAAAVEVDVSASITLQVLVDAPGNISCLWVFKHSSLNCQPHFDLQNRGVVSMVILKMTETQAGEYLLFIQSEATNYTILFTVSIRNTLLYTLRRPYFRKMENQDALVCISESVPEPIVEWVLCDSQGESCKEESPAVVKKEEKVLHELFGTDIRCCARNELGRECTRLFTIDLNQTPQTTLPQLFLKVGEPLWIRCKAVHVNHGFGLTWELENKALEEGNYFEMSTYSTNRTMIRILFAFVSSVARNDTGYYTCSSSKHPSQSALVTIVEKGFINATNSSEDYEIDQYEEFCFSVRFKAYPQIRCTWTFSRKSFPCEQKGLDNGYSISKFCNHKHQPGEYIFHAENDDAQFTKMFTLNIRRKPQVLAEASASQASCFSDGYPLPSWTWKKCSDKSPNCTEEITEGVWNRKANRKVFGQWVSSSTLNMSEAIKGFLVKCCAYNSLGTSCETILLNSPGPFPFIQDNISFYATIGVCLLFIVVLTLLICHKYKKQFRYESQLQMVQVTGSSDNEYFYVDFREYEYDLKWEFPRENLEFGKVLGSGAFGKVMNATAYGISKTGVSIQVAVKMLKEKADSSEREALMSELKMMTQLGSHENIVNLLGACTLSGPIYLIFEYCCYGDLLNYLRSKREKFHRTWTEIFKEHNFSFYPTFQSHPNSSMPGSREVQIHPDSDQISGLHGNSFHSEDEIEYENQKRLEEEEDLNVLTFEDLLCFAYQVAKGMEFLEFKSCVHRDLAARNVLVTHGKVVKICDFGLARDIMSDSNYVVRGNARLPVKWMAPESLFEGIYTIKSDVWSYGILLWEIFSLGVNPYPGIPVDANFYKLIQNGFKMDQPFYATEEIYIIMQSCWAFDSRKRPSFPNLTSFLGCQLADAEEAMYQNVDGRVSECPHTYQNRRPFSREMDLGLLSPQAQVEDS
Chain of Tyrosine-protein kinase ITK/TSK (Q08881 whole entry): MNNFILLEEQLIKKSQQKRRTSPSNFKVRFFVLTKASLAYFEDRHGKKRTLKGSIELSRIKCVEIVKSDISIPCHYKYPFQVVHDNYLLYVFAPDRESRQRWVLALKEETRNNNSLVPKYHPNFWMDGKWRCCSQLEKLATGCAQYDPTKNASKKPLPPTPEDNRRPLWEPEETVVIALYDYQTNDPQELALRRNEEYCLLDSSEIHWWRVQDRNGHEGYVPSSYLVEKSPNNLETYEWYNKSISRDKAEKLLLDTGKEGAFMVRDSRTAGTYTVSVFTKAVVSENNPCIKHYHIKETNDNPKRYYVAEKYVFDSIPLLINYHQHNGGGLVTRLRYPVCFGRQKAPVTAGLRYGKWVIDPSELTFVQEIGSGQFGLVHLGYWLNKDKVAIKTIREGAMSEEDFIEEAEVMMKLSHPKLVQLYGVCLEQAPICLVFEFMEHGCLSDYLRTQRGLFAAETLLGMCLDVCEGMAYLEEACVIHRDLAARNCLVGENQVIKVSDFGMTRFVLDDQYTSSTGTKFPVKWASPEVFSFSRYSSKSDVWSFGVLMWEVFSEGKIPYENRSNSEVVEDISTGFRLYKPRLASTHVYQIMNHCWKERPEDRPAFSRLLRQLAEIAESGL
Chain of Tyrosine-protein kinase FRK (P42685 whole entry): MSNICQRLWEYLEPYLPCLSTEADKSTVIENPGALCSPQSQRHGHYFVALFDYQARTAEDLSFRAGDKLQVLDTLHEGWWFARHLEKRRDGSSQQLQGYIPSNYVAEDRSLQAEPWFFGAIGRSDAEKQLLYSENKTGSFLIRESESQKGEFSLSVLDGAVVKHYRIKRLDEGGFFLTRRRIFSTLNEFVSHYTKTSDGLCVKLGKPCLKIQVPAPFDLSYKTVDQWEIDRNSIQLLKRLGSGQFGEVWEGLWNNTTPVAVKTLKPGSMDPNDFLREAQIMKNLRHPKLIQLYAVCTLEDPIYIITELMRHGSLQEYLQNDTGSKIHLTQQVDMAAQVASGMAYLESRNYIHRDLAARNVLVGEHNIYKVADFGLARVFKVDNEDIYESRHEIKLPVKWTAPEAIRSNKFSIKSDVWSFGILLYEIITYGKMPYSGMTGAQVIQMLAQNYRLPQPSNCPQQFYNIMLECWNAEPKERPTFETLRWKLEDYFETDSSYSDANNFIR
Chain of Calcium/calmodulin-dependent protein kinase type 1 (Q14012 whole entry): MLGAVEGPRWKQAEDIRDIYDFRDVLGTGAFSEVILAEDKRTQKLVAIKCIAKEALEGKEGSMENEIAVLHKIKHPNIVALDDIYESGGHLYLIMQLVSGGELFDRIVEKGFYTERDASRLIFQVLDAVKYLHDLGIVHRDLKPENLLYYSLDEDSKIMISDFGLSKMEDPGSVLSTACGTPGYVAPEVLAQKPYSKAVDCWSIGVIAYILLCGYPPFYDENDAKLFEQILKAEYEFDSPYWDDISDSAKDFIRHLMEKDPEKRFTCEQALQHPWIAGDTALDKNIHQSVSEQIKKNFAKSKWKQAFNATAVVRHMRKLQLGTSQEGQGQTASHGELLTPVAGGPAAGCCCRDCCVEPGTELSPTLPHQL
Chain of Dual specificity mitogen-activated protein kinase kinase 7 (O14733 whole entry): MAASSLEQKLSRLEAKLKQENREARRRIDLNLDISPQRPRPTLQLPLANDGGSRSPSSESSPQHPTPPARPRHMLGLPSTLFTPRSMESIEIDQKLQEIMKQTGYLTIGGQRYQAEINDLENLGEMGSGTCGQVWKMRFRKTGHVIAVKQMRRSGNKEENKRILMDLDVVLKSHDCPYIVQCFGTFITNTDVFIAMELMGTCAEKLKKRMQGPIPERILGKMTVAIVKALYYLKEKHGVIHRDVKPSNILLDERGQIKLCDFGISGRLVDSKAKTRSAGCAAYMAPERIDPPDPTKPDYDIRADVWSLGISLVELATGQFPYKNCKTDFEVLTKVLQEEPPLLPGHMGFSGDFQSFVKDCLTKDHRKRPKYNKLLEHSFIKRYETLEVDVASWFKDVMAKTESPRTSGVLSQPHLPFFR
Chain of Dual specificity mitogen-activated protein kinase kinase 4 (P45985 whole entry): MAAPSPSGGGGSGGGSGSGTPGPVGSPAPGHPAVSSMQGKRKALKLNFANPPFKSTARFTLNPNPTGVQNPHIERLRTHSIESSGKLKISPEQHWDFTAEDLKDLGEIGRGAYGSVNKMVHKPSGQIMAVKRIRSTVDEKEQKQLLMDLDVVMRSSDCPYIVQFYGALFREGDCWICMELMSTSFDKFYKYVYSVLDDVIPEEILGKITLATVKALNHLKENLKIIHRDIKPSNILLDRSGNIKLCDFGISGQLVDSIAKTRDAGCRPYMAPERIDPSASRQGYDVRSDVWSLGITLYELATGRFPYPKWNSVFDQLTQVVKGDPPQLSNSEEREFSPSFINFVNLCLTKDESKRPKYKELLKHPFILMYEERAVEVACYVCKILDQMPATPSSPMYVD
Chain of Dual specificity mitogen-activated protein kinase kinase 2 (P36507 whole entry): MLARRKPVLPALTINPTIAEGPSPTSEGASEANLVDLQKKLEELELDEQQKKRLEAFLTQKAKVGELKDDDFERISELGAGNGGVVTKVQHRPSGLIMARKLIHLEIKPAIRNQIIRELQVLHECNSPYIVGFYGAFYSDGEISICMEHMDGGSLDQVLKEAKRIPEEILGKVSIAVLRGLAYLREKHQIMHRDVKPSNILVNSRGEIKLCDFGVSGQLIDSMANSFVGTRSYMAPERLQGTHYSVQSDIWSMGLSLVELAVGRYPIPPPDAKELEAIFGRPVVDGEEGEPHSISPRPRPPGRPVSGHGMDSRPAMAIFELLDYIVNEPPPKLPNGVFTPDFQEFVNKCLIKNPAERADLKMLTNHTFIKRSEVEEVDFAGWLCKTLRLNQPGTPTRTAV

For `C=CC(=O)N1CCC(Cn2cc(-c3ccc4c(c3)OCO4)c3c(N)ncnc32)CC1`, the inhibition [1] was “Active”, the IC50 (L02) was 31.3 µM and the inhibition [2] was “Dose-dependent effect”. The inhibition [3] was “inactive”, the inhibition [4] was “inactive” and the inhibition [5] was “Active”. It also gave a Tmax [6] of 6.6 min, a t1/2 [7] of 5.18 h and a Vd [8] of 1.21 L/kg. For the same compound, the half-life at 100 µM [9] was 330 min, the half-life at 100 µM [10] was 187 min and the half-life at 100 µM [11] was 257 min. For the same compound, the CLH [12] was 0.0074 mL/min/mg, the CLH [13] was 0.0044 mL/min/mg and the Activity (Mus musculus) was “Active”. It also gave an IC50 [14] greater than 10 µM, an IC50 [15] of 331 nM and an IC50 [16] of 504 nM. For the same compound, the IC50 [17] was greater than 10 µM, the IC50 [18] was greater than 10 µM and the IC50 [19] was greater than 10 µM. It also gave an IC50 [20] greater than 10 µM, an IC50 [21] greater than 10 µM and an IC50 [22] greater than 10 µM. For the same compound, the IC50 [23] was greater than 10 µM, the IC50 [24] was 640 nM and the IC50 [25] was greater than 10 µM. For the same compound, the IC50 [26] was 657 nM, the IC50 [27] was 1130 nM and the IC50 [28] was greater than 10 µM. For the same compound, the IC50 [29] was 146 nM, the IC50 [30] was 636 nM and the IC50 [31] was 259 nM. The IC50 [32] was greater than 10 µM, the IC50 [33] was greater than 10 µM and the IC50 [34] was greater than 10 µM. The Activity [35] was “Non-Toxic”, the Activity [36] was “Non-Toxic” and the Activity [37] was “Non-Toxic”. The Activity [38] was “Non-Toxic” and the Activity [39] was “Non-Toxic”.
